Experimental data reported in patent publication US20050202511A1, “AMP-activated protein kinase (AMPK) inhibitor screening assay” (priority 2002, published 2005).
Where “and” joins values, the source holds several entries; their conditions need not be identical. Identical values can stand only once.

Assays:
AMPK-γ1 CBS1-4 = target: T1, AMPK-γ1 CBS1-4 (UniProt P80385); experiment: Filter binding assay, GST-CBS domain fusion; set-up: species or system rat; details: for Kd: two site Hill plot model, read-out: B0.5
T1 construct: B0.5; other: two site Hill plot model; h (Hill coefficient); fused on or other part: GST at the N-terminus (pGEX-KG, glycine spacer)
Protocol: The construct was expressed in E. coli and could be purified on glutathione-Sepharose as a soluble protein of the expected size (62 kDa) in good yield (3 mg/L of culture).
DNA encoding the CBS1-4 domains of the γ1 isoform was produced using PCR with a rat y1-encoding pcDNA3 plasmid as template. The primers used were: 5′-CGCGGATCCGCGATGGAGACGGTCATTTCTTCA-3′ (sense), 5′-CCGCTCGAGCGGGGGCTTCTTCTCTCCACCTGT-3′ (antisense). The PCR products was sub-cloned into pGEX-KG as above.
(§1) Various concentrations of [^14C]-AMP, [γ^32P] […] Reactions were stopped by spotting 10 ìl onto a Millipore MF Filter Membrane disc and rapidly washing under high vacuum with 1 ml of ice-cold TBS. Radioactivity was determined on the filters by scintillation counting. Non-specific binding (which was trivial) was determined by performing the assay with GST as a control, and was subtracted. […] Data were fitted to the binding models given in the text, using GraphPad Prism 3. Estimates of parameters resulting from fits are quoted in the text and Table 1±standard error, and the curves shown in figures are theoretical curves obtained using those estimates.

AMPK-γ2 CBS3-4 (R531G) = target: T2, AMPK-γ2 CBS3-4 (R531G) (Homo sapiens, UniProt Q9UGJ0, R531G); experiment: Filter binding assay, GST-CBS domain fusion; details: for Kd: single-site model
T2 construct: the C-terminal pair (CBS3-4, residues 430-556); made in house; host or cells: E. coli BL21 (DE3)
T2 sequence (Q9UGJ0 430-556 R531G): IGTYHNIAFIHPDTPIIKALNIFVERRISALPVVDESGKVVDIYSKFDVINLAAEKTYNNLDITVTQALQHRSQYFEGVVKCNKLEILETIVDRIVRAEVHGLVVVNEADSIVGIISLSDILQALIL
Protocol: Site-directed mutagenesis was also used to create a point mutation in CBS4 that causes hereditary heart disease (WPWS) (R531G).
as §1

AMPK = experiment: Activation of AMPK (data not shown); format: biochemical; details: read-out: concentration giving half-maximal activation
AMPK-γ3 CBS1-4 = target: T3, AMPK-γ3 CBS1-4 (Homo sapiens, UniProt Q9UGI9); experiment: Filter binding assay, GST-CBS domain fusion; details: for Kd: two site Hill plot model, read-out: B0.5
T3 construct: Human γ3 (residues 197-479) was also used as a template for PCR; made in house; host or cells: E. coli BL21 (DE3)
T3 sequence (Q9UGI9 197-479): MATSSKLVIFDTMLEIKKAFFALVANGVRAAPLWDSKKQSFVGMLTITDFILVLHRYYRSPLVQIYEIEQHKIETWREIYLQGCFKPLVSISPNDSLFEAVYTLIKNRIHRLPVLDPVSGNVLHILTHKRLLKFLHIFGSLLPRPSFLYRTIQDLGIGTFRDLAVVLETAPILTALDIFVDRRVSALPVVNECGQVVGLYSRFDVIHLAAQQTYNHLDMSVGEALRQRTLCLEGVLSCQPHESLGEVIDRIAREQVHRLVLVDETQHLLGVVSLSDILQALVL
From the text: DNA fragments were produced encoding all four (CBS1-4), or the first two (CBS1-2), or the last two (CBS3-4) of the tandem CBS domains from the human AMPK γ2 subunit. DNAs were produced by the polymerase chain reaction (PCR) using the Stratagene Pfu Turbo PCR kit and a human γ2-encoding pcDNA3 plasmid as template. The following oligonucleotides were used as primers: (CBS1-4), 5′-CGCGGATCCGCGGTTCCAACCAGTTCAAAGCTTGTT-3′ (sense), 5′-CCGCTCGAGCGGCTCCGTTTCTGTCTCCTTTTGTTT-3′ (antisense); CBS1-2 (sense strand as CBS1-4), 5′-CCGCTCGAGCGGAAGCTGGAGGAACTTGAGGATTCT-3′ (antisense); CBS3-4: 5′-CGCGGATCCGCGATAGGAACGTACCACAACATTGCC-3′ (sense), 5′-CCGCTCGAGCGGGAGGATCAGGGCTTGCAGAATGTC-3′ (antisense). Human γ3 (residues 197-479) was also used as a template for PCR (14). The PCR products were subcloned into pGEX-KG as 5′-BamHI and 3′-XhoI restriction fragments for expression as glutathione-S-Transferase (GST) fusions in E. coli.
as §1

[1] = target: T4, recombinant á1â1γ2 heterotrimer (R531G) (Homo sapiens, UniProt Q9UGJ0, R531G); experiment: AMPK heterotrimer kinase assay, activation by AMP; format: biochemical
T4 construct: expressed in transfected cells; host or cells: CCL13 cells
T4 sequence (Q9UGJ0 whole entry R531G): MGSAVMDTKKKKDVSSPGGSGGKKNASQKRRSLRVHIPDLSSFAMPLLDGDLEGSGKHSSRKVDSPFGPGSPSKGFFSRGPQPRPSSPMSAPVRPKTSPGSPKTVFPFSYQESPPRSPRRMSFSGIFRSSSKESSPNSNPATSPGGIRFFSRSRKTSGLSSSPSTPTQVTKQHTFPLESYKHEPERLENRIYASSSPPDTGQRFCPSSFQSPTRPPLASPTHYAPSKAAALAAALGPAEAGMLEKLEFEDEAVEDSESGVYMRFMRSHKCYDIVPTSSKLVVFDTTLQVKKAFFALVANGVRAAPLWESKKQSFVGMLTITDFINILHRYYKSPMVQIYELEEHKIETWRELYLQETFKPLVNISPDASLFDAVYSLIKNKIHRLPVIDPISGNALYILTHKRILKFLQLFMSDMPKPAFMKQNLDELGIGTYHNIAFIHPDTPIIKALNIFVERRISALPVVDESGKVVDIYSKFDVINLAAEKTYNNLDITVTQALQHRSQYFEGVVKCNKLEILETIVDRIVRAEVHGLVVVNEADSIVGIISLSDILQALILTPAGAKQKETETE
T4 sequence (P54645 whole entry partner): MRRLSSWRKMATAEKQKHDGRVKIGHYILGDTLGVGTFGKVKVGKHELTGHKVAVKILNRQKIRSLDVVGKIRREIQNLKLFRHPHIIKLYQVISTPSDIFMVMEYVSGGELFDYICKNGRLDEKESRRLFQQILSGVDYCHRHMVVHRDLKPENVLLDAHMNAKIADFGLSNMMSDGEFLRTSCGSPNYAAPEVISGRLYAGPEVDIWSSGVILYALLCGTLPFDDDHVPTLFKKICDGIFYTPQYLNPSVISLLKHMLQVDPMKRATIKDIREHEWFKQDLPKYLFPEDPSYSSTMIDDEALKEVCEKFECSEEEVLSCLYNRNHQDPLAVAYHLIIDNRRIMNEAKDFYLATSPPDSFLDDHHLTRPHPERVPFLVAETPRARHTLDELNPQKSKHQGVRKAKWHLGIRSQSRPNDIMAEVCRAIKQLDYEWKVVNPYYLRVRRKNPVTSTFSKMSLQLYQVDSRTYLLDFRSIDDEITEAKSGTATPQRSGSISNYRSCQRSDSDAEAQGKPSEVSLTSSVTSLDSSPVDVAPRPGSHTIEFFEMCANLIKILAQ
T4 sequence (P80386 whole entry partner): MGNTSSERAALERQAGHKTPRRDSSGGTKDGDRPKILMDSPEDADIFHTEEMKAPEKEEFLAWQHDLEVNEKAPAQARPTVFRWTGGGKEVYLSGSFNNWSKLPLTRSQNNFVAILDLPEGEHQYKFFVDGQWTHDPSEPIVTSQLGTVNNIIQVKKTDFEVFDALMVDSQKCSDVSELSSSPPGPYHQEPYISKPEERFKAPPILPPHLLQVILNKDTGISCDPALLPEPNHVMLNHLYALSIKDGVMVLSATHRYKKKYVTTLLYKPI
From the text: (§2) Plasmids expressing myc-tagged á1, â1 and γ1, γ2 (with or without WPWS mutations) or γ3 were expressed in CCL13 cells and the recombinant complexes immunoprecipitated using anti-myc antibodies.
(§3) For this reason, the estimates of A0.5 for the H383R and T400N mutants are somewhat less accurate than the others, while no value could be obtained for the R531 G mutant. […] With some mutants, the maximal activation also appeared to be affected.
(§4) PCDNA plasmids (14,25,32) encoding á1, â1 and γ1, γ2 or γ3 were expressed in CCL13 cells (25), subject to “rapid lysis”, immunoprecipitated using anti-myc antibody, and assayed as described previously (33). “Slow lysis” of CCL13 cells was as described by Stein et al (34).

[2] = target: recombinant á1â1γ2 heterotrimer (Lins) (Homo sapiens, UniProt Q9UGJ0, INS350L); experiment: AMPK heterotrimer kinase assay, activation by AMP; format: biochemical; details: immunoprecipitated from CCL13 cells, slow lysis; read-out: A0.5
recombinant á1â1γ2 heterotrimer (Lins), sequence (Q9UGJ0 with tags, fused parts or gaps INS350L): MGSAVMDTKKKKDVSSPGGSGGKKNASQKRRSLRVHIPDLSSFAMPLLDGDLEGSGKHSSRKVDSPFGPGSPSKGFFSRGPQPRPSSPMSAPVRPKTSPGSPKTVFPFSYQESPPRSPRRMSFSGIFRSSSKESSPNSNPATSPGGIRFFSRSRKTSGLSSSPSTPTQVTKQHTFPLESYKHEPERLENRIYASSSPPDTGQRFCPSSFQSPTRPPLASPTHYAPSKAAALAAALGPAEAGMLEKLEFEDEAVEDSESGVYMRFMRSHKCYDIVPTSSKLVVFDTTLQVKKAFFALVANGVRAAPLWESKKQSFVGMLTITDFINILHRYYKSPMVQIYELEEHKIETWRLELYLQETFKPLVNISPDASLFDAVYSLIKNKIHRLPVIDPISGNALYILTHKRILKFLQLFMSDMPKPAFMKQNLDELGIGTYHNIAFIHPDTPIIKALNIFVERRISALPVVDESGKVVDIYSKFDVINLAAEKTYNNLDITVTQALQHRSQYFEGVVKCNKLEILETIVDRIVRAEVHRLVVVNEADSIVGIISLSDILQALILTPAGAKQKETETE
From the text: as §2, §3, §4

[3] = target: T5, recombinant á1â1γ2 heterotrimer (T400N) (Homo sapiens, UniProt Q9UGJ0, T400N); experiment: AMPK heterotrimer kinase assay, activation by AMP; format: biochemical; details: slow lysis; estimate somewhat less accurate; read-out: A0.5
T5 construct: expressed in transfected cells; host or cells: CCL13 cells
T5 sequence (Q9UGJ0 whole entry T400N): as the sequence (Q9UGJ0 whole entry R531G) above, with T400N, G531R counted along it
T5 sequence (P54645 whole entry partner): as the sequence (P54645 whole entry partner) above
T5 sequence (P80386 whole entry partner): as the sequence (P80386 whole entry partner) above
From the text: as §2, §3, §4

AMPK-γ2 CBS1-2 (H383R) = target: T6, AMPK-γ2 CBS1-2 (H383R) (Homo sapiens, UniProt Q9UGJ0, H383R); experiment: Filter binding assay, GST-CBS domain fusion; details: for Kd: single-site model
T6 construct: the N-terminal pair (CBS1-2, residues 274-410); made in house; host or cells: E. coli BL21 (DE3)
T6 sequence (Q9UGJ0 274-410 H383R): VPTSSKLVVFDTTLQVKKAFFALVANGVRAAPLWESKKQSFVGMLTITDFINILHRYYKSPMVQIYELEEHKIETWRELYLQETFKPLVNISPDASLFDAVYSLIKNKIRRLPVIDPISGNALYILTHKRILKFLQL
Protocol: (§5) The present inventors also used site-directed mutagenesis to create four of the mutations in CBS1-2 that cause WPWS, i.e. R302Q, H383R and T400N, and Lins (which inserts a leucine residue in the linker between CBS1 and CBS2).
as §1

AMPK-γ2 CBS1-2 (T400N) = target: T7, AMPK-γ2 CBS1-2 (T400N) (Homo sapiens, UniProt Q9UGJ0, T400N); experiment: Filter binding assay, GST-CBS domain fusion; details: for Kd: single-site model
T7 construct: the N-terminal pair (CBS1-2, residues 274-410); made in house; host or cells: E. coli BL21 (DE3)
T7 sequence (Q9UGJ0 274-410 T400N): as the sequence (Q9UGJ0 274-410 H383R) above, with R110H, T127N counted along it
Protocol: as §5, §1

AMPK-γ2 CBS1-2 (Lins) = target: T8, AMPK-γ2 CBS1-2 (Lins) (Homo sapiens, UniProt Q9UGJ0, INS350L); experiment: Filter binding assay, GST-CBS domain fusion; details: single-site model
T8 construct: fused on or other part: GST at the N-terminus followed by a hexaglycine spacer (pGEX-KG)
T8 sequence (Q9UGJ0 with tags, fused parts or gaps INS350L): as the sequence (Q9UGJ0 with tags, fused parts or gaps INS350L) above
Protocol: as §5, §1

h (Hill coefficient) (AMPK-γ1 CBS1-4) | Kd (AMPK-γ1 CBS1-4) [µM] | increase in Kd relative to wild type (AMPK-γ2 CBS3-4 (R531G)) [fold] | Kd (AMPK-γ2 CBS3-4 (R531G)) [µM] | EC50 (AMPK) [µM] | h (Hill coefficient) (AMPK-γ3 CBS1-4) | Kd (AMPK-γ3 CBS1-4) [µM] | effect of adding AMP on activity [1] | EC50 ([1]; read-out: A0.5) [µM] | EC50 [2] [µM] | EC50 [3] [µM] | increase in Kd relative to wild type (AMPK-γ2 CBS1-2 (H383R)) [fold] | Kd (AMPK-γ2 CBS1-2 (H383R)) [µM] | increase in Kd relative to wild type (AMPK-γ2 CBS1-2 (T400N)) [fold] | Kd (AMPK-γ2 CBS1-2 (T400N)) [µM] | Kd (AMPK-γ2 CBS1-2 (Lins)) [µM] | Structure (SMILES)
1.6±0.1 and 1.6 ± 0.2 | 20 ± 1 | 15 | 1570 ± 110 | 4.7 | 2.2 ± 0.1 | 125 | inhibited | > 100 | 9 ± 4 | 95 ± 32 | 28 | 1500 ± 210 | 10 | 556 ± 56 | 63 ± 7 | Nc1ncnc2c1ncn2[C@@H]1O[C@H](COP(=O)(O)O)[C@@H](O)[C@H]1O [AMP, adenosine monophosphate]
1.9 ± 0.2 | 119 ± 7 |  | 2050 ± 150 |  | 1.5 ± 0.1 | 989 ± 58 |  |  |  |  |  | 1570 ± 140 |  | 952 ± 55 | 202 ± 22 | Nc1ncnc2c1ncn2[C@@H]1O[C@H](COP(=O)(O)OP(=O)(O)OP(=O)(O)O)[C@@H](O)[C@H]1O [ATP]
